This is an account of results in US5258397A, “3-Isoxazoyl derivatives endowed with anticonvulsant activity, procedure for their preparation and their pharmaceutical compositions” (Novapharme, priority 1988, dated 1993).

The nature of data set [1]: Determination of the lethal dose 50 (MILLER and TAINTER). As to conditions: in vivo, ip. How it is done: The toxicity is measured by the technique of MILLER and TAINTER by the intraperitoneal route.
Data set [2] concerns SWISS CDl mice. Description: Seizures induced by pentetrazole (anticonvulsant activity). It counts as in vivo. As to conditions: i.p., % protected against clonic seizures; for % protection against Pentetrazole 30 mn.: 1/10 of the LD50, 30 mn before pentetrazole 70 mg/kg s.c.; for % protection against Pentetrazole 4 h: 1/10 of the LD50, 4 hours before pentetrazole 70 mg/kg s.c. The method, then: (§1) The anticonvulsant activity is measured by the electroshock and pentetrazole tests according to the procedure of A. SWINYARD (ADD PROGRAM OF NINCDS BY H. J. KUPFERBERG. E. A. SWINYARD AND G. D. GLADDING in Advances in Epileptology/XIIth Epilepsy International Symposium edited by M. DAM, L. GRAM and J. K. PENRY-RAVEN press N.Y. 1981). The compounds are always administered (at 1/10 of the LD50) by IP injections into SWISS CDl mice (Charles River) of 20-25 g mean weight. All of the compounds are dissolved in a 0.9% solution of sodium chloride or suspended in a 1% solution of carboxymethyl cellulose or tween.
Seizures induced by pentetrazole. 70 mg/kg of pentetrazole are injected by the subcutaneous route into groups of 10 mice (1 control group and one treated group) in a volume of 0.2 ml/20 g of body weight. The compounds to be tested are administered either 30 mn before pentetrazole or 4 hours before pentetrazole by the intraperitoneal route. The animals are observed for 30 mn. The number of clonic seizures lasting 5 seconds or more and the percentage of the animals protected against clonic seizures are recorded.

For data set [3], the system named is SWISS CDl mice. Kind of data set: Electroshock test (anticonvulsant activity). The following applies: i.p., % of animals not extending the hind paws; for % protection against Electro shock 30 min.: 1/10 of the LD50, 30 min before electroshock; for % protection against Electro shock 4 h: 1/10 of the LD50, 4 hours before electroshock. It counts as in vivo. The method, then: as §1
Electroshock test. Groups of 10 mice (1 control group and one treated group) are used for each compound. The treated group receives the compound to be tested by the intraperitoneal route either 30 mn before the electroshock or 4 hours before the electroshock. This latter is applied with the aid of corneal electrodes (50 milliamperes for 0.2 second). Protection is measured by the percentage of animals not extending the hind paws.

The subject of data set [4] is mice. Kind of data set: Cerebral protective activity: hypoxia induced by the altitude. It counts as in vivo. As to conditions: i.p., 30 min before closed chamber at 210 mm Hg. The method, then: Five mice (20 to 25 g) receive an administration of the compound or the liquid vehicle by the intraperitoneal route 30 min. before being placed in a closed chamber in which the atmospheric pressure is reduced to 210 mm Hg. The time of survival (in seconds) is measured from the induction of hypoxia to the cessation of respiratory movements.

With `CC(=O)n1nc(C(=O)Nc2c(C)cccc2Cl)cc1C` [Compound 2, 3-(2-chloro 6-methylphenylcarbamoyl) 1-acetyl 5-methyl pyrazole], the LD50 in data set [1] (intraperitoneal route) turned out to be 350 mg/kg. Also, in data set [2], the “% protection against Pentetrazole 30 mn.” value is given as 80% and the “% protection against Pentetrazole 4 h” value is reported as 0%. Further, in data set [3], the “% protection against Electro shock 30 min.” value is given as 100% and the “% protection against Electro shock 4 h” value came out at 0%.

Take `Cc1cccc(C)c1C(=O)Nc1cc(C)n(C)n1` [Compound 3, N-(1,5-dimethyl-3-pyrazolyl)2,6-dimethylbenzamide]: the LD50 in data set [1] (intraperitoneal route) was determined as 1000 mg/kg. In data set [2], the “% protection against Pentetrazole 30 mn.” value stood at 50% and the “% protection against Pentetrazole 4 h” value stood at 0%. Besides, in data set [3], the “% protection against Electro shock 30 min.” value was 100% and the “% protection against Electro shock 4 h” value turned out to be 0%.

As to `Cc1cccc(C)c1NC(=O)c1cc(C)n(C)n1` [Compound 4, 3-(2,6-dimethylphenylcarbamoyl) 1,5-dimethyl pyrazole], in data set [1] (intraperitoneal route), the LD50 worked out at 150 mg/kg. Besides, the “hypoxia induced by the altitude; increase time of survival as % of controls” value in data set [4] is listed as 60 % of controls. In addition, in data set [2], the “% protection against Pentetrazole 30 mn.” value was found to be 30% and the “% protection against Pentetrazole 4 h” value worked out at 10%. Besides, in data set [3], the “% protection against Electro shock 30 min.” value amounted to 100% and the “% protection against Electro shock 4 h” value amounted to 0%.

In turn, `Cc1cccc(Cl)c1NC(=O)c1cc(C)n(C)n1` [Compound 5, 3-(2-chloro 6-methylphenylcarbamoyl) 1,5-dimethyl pyrazole] returned an LD50 in data set [1] (intraperitoneal route) of 500 mg/kg. Besides, in data set [2], the “% protection against Pentetrazole 30 mn.” value came out at 40% and the “% protection against Pentetrazole 4 h” value is 10%. Besides, in data set [3], the “% protection against Electro shock 30 min.” value amounted to 100% and the “% protection against Electro shock 4 h” value was determined as 10%.

As for `Cc1cccc(C)c1N(C)C(=O)c1cc(C)n(C)n1` [Compound 7], the LD50 in data set [1] came to 400 mg/kg. In data set [2], the “% protection against Pentetrazole 30 mn.” value is given as 30% and the “% protection against Pentetrazole 4 h” value was determined as 0%. In data set [3], the “% protection against Electro shock 30 min.” value stood at 70% and the “% protection against Electro shock 4 h” value amounted to 0%.

In data set [1] (intraperitoneal route), `COc1cc(C(=O)Nc2c(C)cccc2C)nn1C` [Compound 15, 3-(2,6-dimethylphenylcarbamoyl) 1-methyl 5-methoxy pyrazole] returned an LD50 of 400 mg/kg. In addition, the “hypoxia induced by the altitude; increase time of survival as % of controls” value in data set [4] was 21 % of controls. Further, in data set [2], the “% protection against Pentetrazole 30 mn.” value is given as 0% and the “% protection against Pentetrazole 4 h” value is 10%. Also, in data set [3], the “% protection against Electro shock 30 min.” value stood at 10% and the “% protection against Electro shock 4 h” value is listed as 0%.

`Cc1cc(NC(=O)c2c(C)cccc2C)no1` [Compound 17] displayed an LD50 in data set [1] of 2000 mg/kg. In addition, in data set [2], the “% protection against Pentetrazole 30 mn.” value was 30% and the “% protection against Pentetrazole 4 h” value was determined as 20%. Also, in data set [3], the “% protection against Electro shock 30 min.” value was 100% and the “% protection against Electro shock 4 h” value is 0%.

With `Cc1cccc(C)c1NC(=O)c1cc(COC(=O)c2ccccc2)on1` [Compound 29], the LD50 in data set [1] was determined as 2000 mg/kg. Besides, in data set [2], the “% protection against Pentetrazole 30 mn.” value stood at 10% and the “% protection against Pentetrazole 4 h” value was 10%. In addition, in data set [3], the “% protection against Electro shock 30 min.” value worked out at 70% and the “% protection against Electro shock 4 h” value is 0%.

In data set [1] (intraperitoneal route), `Cc1cccc(C)c1NC(=O)c1cc(CF)on1` [Compound 31, 3-(2,6-dimethylphenylcarbamoyl) 5-fluoromethyl isoxazole] had an LD50 of 375 mg/kg. In data set [2], the “% protection against Pentetrazole 30 mn.” value was found to be 0% and the “% protection against Pentetrazole 4 h” value turned out to be 0%. In data set [3], the “% protection against Electro shock 30 min.” value amounted to 100% and the “% protection against Electro shock 4 h” value was 0%.

`CC(=O)n1nc(C(=O)Nc2c(C)cccc2C)cc1C` [Compound 41] yielded an LD50 in data set [1] of 350 mg/kg. Besides, in data set [2], the “% protection against Pentetrazole 30 mn.” value came out at 50% and the “% protection against Pentetrazole 4 h” value turned out to be 0%. Also, in data set [3], the “% protection against Electro shock 30 min.” value was 100% and the “% protection against Electro shock 4 h” value amounted to 0%.

By LD50 is commonly meant the dose at which mortality reaches 50%. A lower LD50 goes with greater toxicity.
